The subject of this test is LS513 KRAS G12V (colon). As to the kind of experiment: MTT assay. As to conditions: Homo sapiens, LS-513, 72 h, Table 4; 3 days incubation; read-out: MTT assay IC50 KRAS mutant (Colon) LS513 KRAS G12V. It counts as cell-based. The method, then:
MTT assay is frequently used for the purpose of primary screening for the sensitivity of anticancer agents and to examine cytotoxicity. When cancer cells are treated with varying concentrations of any anticancer agent for a predetermined time to induce death of the cells and are then treated with MTT, and when the formation of formazan is measured, the concentration of the anticancer agent, at which about 50% of the cells survive, can be determined. This concentration value is called IC50. IC50 values differ between drugs, and thus can be characteristic of the drugs. Using this method, the effects of anticancer agents against cell proliferation can be quantitatively compared. Thus, in order to measure the cytotoxicity of samples, MTT assay was performed using CellTiter 96 Non-radioactive Cell Proliferation Assay Kit (Promega).
Cells in a cell suspension were counted with a hematocytometer, and then 200 μL of the cell suspension was added to each well of a 96 well plate at a desired concentration (cell amount determined depending on a cell line). After cell seeding, the cells were incubated in a CO2 incubator at 37° C. overnight. After one day of cell stabilization, the cells were treated with desired concentrations of the compounds. The cells were incubated in a CO2 incubator at 37° C. for 3 days, and then the sample was removed, and 200 μL of MTT solution was added to each well. After 2 hours of incubation, the MTT dilution was carefully shaken, and 200 μL of DMSO was added to each well, followed by shaking with a plate shaker for 60 minutes.
A general note: Formazan colour is commonly taken as a measure of viable cells.

What is called IC50 is the point on the concentration scale where inhibition reaches its midpoint.

With `O=C(Cc1cccc(C(F)(F)F)c1)Nc1cc(Nc2ncccc2-c2ncnc3[nH]cnc23)ccc1F` [Example 76, N-2-Fluoro-5-[3-(9H-Purin-6-Yl)Pyridin-2-Ylamino]Phenyl-2-(3-Trifluoromethylphenyl)Acetamide], the IC50 came to 0.426 µM.
As for `N#CCc1cccc(NC(=O)c2ccc(F)c(Nc3ncccc3-c3ncnc4[nH]cnc34)c2)c1` [Example 77, N-(3-Cyanomethylphenyl)-4-Fluoro-3-[3-(9H-Purin-6-Yl)Pyridin-2-Ylamino]Benzamide], the IC50 was 145 µM.
The result for `N#CCc1ccc(C(=O)Nc2ccc(Nc3ncccc3-c3ncnc4[nH]cnc34)c(F)c2)cc1` [Example 78, N-4-[(3-(9H-Purin-6-Yl)Pyridin-2-Yl)Amino]-3-Fluorophenyl-4-(Cyanomethyl)Benzamide] reads 0.137 µM; that for `O=C(Nc1ccc(Nc2ncccc2-c2ncnc3[nH]cnc23)cc1)c1cccc(C(F)(F)F)c1` [Example 79, N-4-[3-(9H-Purin-6-Yl)Pyridin-2-Ylamino]Phenyl-3-Trifluoromethylbenzamide], greater than 10 µM.
The result for `COc1cc(Nc2ncccc2-c2ncnc3[nH]cnc23)ccc1NC(=O)c1cccc(C(F)(F)F)c1` [Example 80, N-2-Methoxy-4-[3-(9H-Purin-6-Yl)Pyridin-2-Ylamino]Phenyl-3-Trifluoromethylbenzamide] reads greater than 10 µM.
Then `O=C(Nc1ccc(F)c(Nc2ncccc2-c2ncnc3[nH]cnc23)c1F)N1CCN(c2ccc(F)cc2)C1=O` [Example 81, N-(3-(3-(9H-purin-6-yl)pyridin-2-ylamino)-2,4-difluorophenyl)-3-(4-fluorophenyl)-2-oxoimidazolidine-1-carboxamide], with 0.388 µM; and `CC(C)(C#N)c1cccc(C(=O)Nc2cc(Nc3ncccc3-c3ncnc4[nH]ccc34)c(F)cc2F)c1` [Example 84, N-(5-(3-(7H-Pyrrolo[2,3-d]Pyrimidin-4-Yl)Pyridin-2-Ylamino)-2,4-Diflurophenyl)-3-(2-Cyanopropan-2-Yl)Benzamide], with 0.118 µM.
Regarding `CC(C)(C#N)c1cccc(C(=O)Nc2ccc(F)c(Nc3ncccc3-c3ncnc4[nH]ccc34)c2F)c1` [Example 85, N-(3-(3-(7H-Pyrrolo[2,3-d]Pyrimidin-4-Yl)Pyridin-2-Ylamino)-2,4-Difluorophenyl)-3-(2-Cyanopropan-2-Yl)Benzamide], the concentration for half-maximal inhibition (IC50) was determined as 0.676 µM.
The result for `CC(C)(C#N)c1cccc(C(=O)Nc2cccc(Nc3ncccc3-c3ncnc4[nH]ccc34)c2F)c1` [Example 86, N-(3-(3-(7H-Pyrrolo[2,3-d]Pyrimidin-4-Yl)Pyridin-2-Ylamino)-2-Fluorophenyl)-3-(2-Cyanopopan-2-Yl)Benzamide] reads greater than 10 µM; that for `O=C(Nc1cc(Nc2ncccc2-c2ncnc3[nH]ccc23)ccc1F)c1cccc(C(F)(F)F)c1` [Example 87, N-2-Fluoro-5-[3-(7H-Pyrrolo[2,3-d]Pyrimidin-4-Yl)Pyridin-2-Ylamino]Phenyl-3-Trifluoromethyl Benzamide], 2.18 µM; that for `O=C(Nc1cc(Nc2ncccc2-c2ncnc3[nH]ccc23)ccc1F)c1cc(F)cc(C(F)(F)F)c1` [Example 88, 3-Fluoro-N-2-Fluoro-5-[3-(7H-Pyrrolo[2,3-d]Pyrimidin-4-Yl)Pyridin-2-Ylamino]Phenyl-5-Trifluoromethyl Benzamide], 0.609 µM.
Then `CC(C)(C#N)c1cccc(C(=O)Nc2cc(Nc3ncccc3-c3ncnc4[nH]ccc34)ccc2F)c1` [Example 91, 3-(2-Cyanopropan-2-Yl)-N-2-Fluoro-5-[3-(7H-Pyrrolo[2,3-d]Pyrimidin-4-Yl)Pyridin-2-Ylamino]Phenyl Benzamide], with 1.12 µM.
Then `CC(C)(C#N)c1cc(F)cc(C(=O)Nc2cc(Nc3ncccc3-c3ncnc4[nH]ccc34)ccc2F)c1` [Example 92, 3-(2-Cyanopropan-2-Yl)-5-Fluoro-N-2-Fluoro-5-[3-(7H-Pyrrolo[2,3-d]Pyrimidin-4-Yl)Pyridin-2-Ylamino]Phenyl Benzamide], with 1.51 µM; and `O=C(Nc1cc(Nc2ncccc2-c2ncnc3[nH]cnc23)ccc1F)c1ccc(F)c(C(F)(F)F)c1` [Example 111, N-5-[(3-(9H-Purin-6-Yl)Pyridin-2-Yl)Amino]-2-Fluorophenyl-4-Fluoro-3-(Trifluoromethyl)Benzamide], with 0.3 µM; and `CC(C)(C#N)c1cccc(NC(=O)c2cc(Nc3ncccc3-c3ncnc4[nH]cnc34)ccc2F)c1` [Example 112, 5-[3-(9H-Purin-6-Yl)Amino]-N-[3-(2-Cyanopropan-2-Yl)Phenyl]-2-Fluorobenzamide], with greater than 10 µM.
As for `O=C(Nc1cc(Nc2ncccc2-c2ncnc3[nH]cnc23)ccc1F)c1cccc(F)c1` [Example 113, N-5-[(3-(9H-Purin-6-Yl)Pyridin-2-Yl)Amino]-2-Fluorophenyl-3-Fluorobenzamide], the concentration for half-maximal inhibition (IC50) turned out to be 1.48 µM.
Then `CC(C)(C#N)c1cc(C(=O)Nc2cc(Nc3ncccc3-c3ncnc4[nH]cnc34)ccc2F)ccc1F` [Example 116, N-5-[(3-(9H-purin-6-yl)pyridin-2-yl)amino]-2-fluoropheny-3-(2-cyanopropan-2-yl)-4-fluorobenzamide], with 0.587 µM; and `CC(C)(C#N)c1cc(C(=O)Nc2cc(Nc3ncccc3-c3ncnc4[nH]cnc34)ccc2F)ccc1Cl` [Example 117, N-5-[(3-(9H-purin-6-yl)pyridin-2-yl)amino]-2-fluorophenyl-4-chloro-3-(2-cyanopropan-2-yl)benzamide], with 0.868 µM; and `O=C(Nc1cccc(C(F)(F)F)c1)Nc1cc(Nc2ncccc2-c2ncnc3[nH]cnc23)ccc1F` [Example 118, 1-5-[(3-(9H-purin-6-yl)pyridin-2-yl)amino]-2-fluorophenyl-3-[3-(trifluoromethyl)phenyl]urea], with 0.153 µM.
Then `CC(C)(C#N)c1cccc(C(=O)Nc2cc(Nc3ncccc3-c3ncnc4[nH]cnc34)ccc2F)n1` [Example 119, N-5-[(3-(9H-purin-6-yl)pyridin-2-yl)amino]-2-fluorophenyl-6-(2-cyanopropan-2-yl)picolinamide], with greater than 10 µM.
Then `O=C(Nc1cc(Nc2ncccc2-c2ncnc3[nH]cnc23)ccc1F)c1cc(C(F)(F)F)ccc1F` [Example 120, N-5-[(3-(9H-purin-6-yl)pyridin-2-yl)amino]-2-fluorophenyl-2-fluoro-5-(trifluoromethyl)benzamide], with 3.38 µM; and `O=C(Nc1cc(Nc2ncccc2-c2ncnc3[nH]cnc23)ccc1F)c1cccc(C(F)(F)F)c1F` [Example 121, N-5-[(3-(9H-purin-6-yl)pyridin-2-yl)amino]-2-fluorophenyl-2-fluoro-3-(trifluoromethyl)benzamide], with 0.304 µM; and `O=C(Nc1cccc(Nc2ncccc2-c2ncnc3[nH]cnc23)c1F)c1cccc(C(F)(F)F)c1` [Example 122, N-3-[(3-(9H-purin-6-yl)pyridin-2-yl)amino]-2-fluorophenyl-3-(trifluoromethyl)benzamide], with 6.58 µM.
Take `O=C(Nc1ccc(C(F)(F)F)cc1)Nc1cc(Nc2ncccc2-c2ncnc3[nH]cnc23)ccc1F` [Example 123, 1-5-[(3-(9H-purin-6-yl)pyridin-2-yl)amino]-2-fluorophenyl-3-[4-(trifluoromethyl)phenyl]urea]: the half-maximal inhibitory concentration (IC50) amounted to 0.392 µM.

(Values after patent US10844062B2, “Pyridine derivative inhibiting RAF kinase and vascular endothelial growth factor receptor, method for preparing same, pharmaceutical composition containing same, and use thereof” (SAMJIN PHARMACEUTICAL CO., LTD., priority 2016, dated 2020).)
